US20250215030A1, “STAT MODULATORS AND USES THEREOF” (Recludix Pharma, Inc., priority 2022, published 2025)

How the values were obtained:
[1] = molecular target: T1, Recombinant STAT3 protein (STAT3(G127-I722)) (Homo sapiens, UniProt P40763); experiment: STAT3 Fluorescence Polarization (FP) Assay; assay type: binding; settings: STAT3(G127-I722) 25 nM, probe 5-FAM-GpYLPQTV-NH2 2 nM, 45-minute incubation
T1 construct: STAT3(G127-I722)
Experimental: STAT3 Fluorescence Polarization (FP) Assay
An FP assay was developed to determine IC50 values for test substances. Recombinant STAT3 protein (STAT3(G127-I722)) at 25 nM was combined with a fluorescently labeled, phosphotyrosine peptide probe (5-FAM-GpYLPQTV-NH2) at 2 nM in FP buffer (10 mM HEPES pH 7.4, 50 mM NaCl, 1 mM EDTA, 0.05% Tween 20, 2 mM DTT). 50 μL of STAT3-probe mixture was added to serial diluted compounds in black, 96-well plates (Greiner BioOne 655076) to a final concentration of 1% DMSO. Reaction components were mixed, and FP was measured after 45-minute incubation at room temperature using a Tecan Spark multimode plate reader. FP signal (mP) was plotted against the log concentration of the test substances and IC50 values were calculated by nonlinear regression analysis using GraphPad Prism software. For STAT3 FP assay, A=≤100 nM; B=>100-1000 nM; C=>1-10 μM; and D=>10 μM.

[2] = molecular target: T2, Recombinant STAT6 protein (STAT6(W123-T658)) (Homo sapiens, UniProt P42226); experiment: STAT6 Fluorescence Polarization (FP) Assay; assay type: binding; settings: STAT6(W123-T658) 250 nM, probe 5-FAM-ApYKPFQDLI-NH2 2 nM, 45-minute incubation
T2 construct: STAT6(W123-T658)
T2 sequence (P42226 123-658): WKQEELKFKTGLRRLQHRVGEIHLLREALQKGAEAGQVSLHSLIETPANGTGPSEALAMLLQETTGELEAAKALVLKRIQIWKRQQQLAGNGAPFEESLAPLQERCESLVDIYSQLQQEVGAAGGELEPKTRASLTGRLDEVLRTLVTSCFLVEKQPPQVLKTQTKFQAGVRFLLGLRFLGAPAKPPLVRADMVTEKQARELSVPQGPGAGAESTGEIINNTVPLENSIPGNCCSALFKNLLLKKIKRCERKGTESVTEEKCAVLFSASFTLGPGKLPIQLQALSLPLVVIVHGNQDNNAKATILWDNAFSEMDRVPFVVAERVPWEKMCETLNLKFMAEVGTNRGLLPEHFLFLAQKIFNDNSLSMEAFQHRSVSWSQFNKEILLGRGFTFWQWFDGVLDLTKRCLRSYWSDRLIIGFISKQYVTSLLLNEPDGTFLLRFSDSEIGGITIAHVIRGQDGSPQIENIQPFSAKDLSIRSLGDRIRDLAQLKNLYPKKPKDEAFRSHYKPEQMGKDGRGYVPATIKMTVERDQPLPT
Experimental: STAT6 Fluorescence Polarization (FP) Assay
An FP assay was developed to determine IC50 values for test substances. Recombinant STAT6 protein (STAT6(W123-T658)) at 250 nM was combined with a fluorescently labeled, phosphotyrosine peptide probe (5-FAM-ApYKPFQDLI-NH2) at 2 nM in FP buffer (10 mM HEPES pH 7.4, 50 mM NaCl, 1 mM EDTA, 0.05% Tween 20, 2 mM DTT). 50 μL of STAT6-probe mixture was added to serial diluted compounds in black, 96-well plates (Greiner BioOne 655076) to a final concentration of 1% DMSO. Reaction components were mixed, and FP was measured after 45-minute incubation at room temperature using a Tecan Spark multimode plate reader. FP signal (mP) was plotted against the log concentration of the test substances and IC50 values were calculated by nonlinear regression analysis using GraphPad Prism software. For STAT6 FP assay, A=≤300 nM; B=>300-3000 nM; C=>3-30 μM; and D=>30 μM.

T1 sequence (P40763 127-722, species assumed): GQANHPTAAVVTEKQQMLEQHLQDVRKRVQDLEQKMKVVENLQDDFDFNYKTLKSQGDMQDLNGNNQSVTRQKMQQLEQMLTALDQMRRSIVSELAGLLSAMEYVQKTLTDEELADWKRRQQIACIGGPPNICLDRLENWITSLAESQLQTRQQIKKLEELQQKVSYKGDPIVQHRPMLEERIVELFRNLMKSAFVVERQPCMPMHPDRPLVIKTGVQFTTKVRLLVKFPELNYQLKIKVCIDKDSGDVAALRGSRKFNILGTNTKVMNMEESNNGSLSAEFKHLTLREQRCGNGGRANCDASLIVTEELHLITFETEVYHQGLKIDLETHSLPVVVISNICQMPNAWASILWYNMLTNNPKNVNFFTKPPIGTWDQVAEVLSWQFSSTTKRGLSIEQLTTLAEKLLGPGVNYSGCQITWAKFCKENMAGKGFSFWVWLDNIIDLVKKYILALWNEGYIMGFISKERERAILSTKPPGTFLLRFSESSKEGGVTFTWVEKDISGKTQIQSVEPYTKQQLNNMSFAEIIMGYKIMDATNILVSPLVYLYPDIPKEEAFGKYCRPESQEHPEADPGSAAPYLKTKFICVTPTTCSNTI

Row | SMILES | IC50 [1] [nM] | IC50 [2] [nM]
1 | O=C(N[C@H]1C[C@@H]2C[C@@H]2C[C@H]2CC[C@@H](C(=O)NC3CN(c4ccccn4)C3)N2C1=O)c1cc2cc(C(F)(F)P(=O)(O)O)ccc2s1 [Compound 44, (difluoro(2-(((3S,6S,7aS,8aR,9aR)-5-oxo-3-((1-(pyridin-2-yl)azetidin-3-yl)carbamoyl)decahydro-1H-cyclopropa[d]pyrrolo[1,2-a]azocin-6-yl)carbamoyl)benzo[b]thiophen-5-yl)methyl)phosphonic acid] | < 100 | 300 to 3000
2 | N#CC1(c2ccccn2)CN(C(=O)[C@@H]2CC[C@@H]3C[C@H]4C[C@H]4C[C@H](NC(=O)c4cc5cc(C(F)(F)P(=O)(O)O)ccc5s4)C(=O)N32)C1 [Compound 89, ((2-(((3S,6S,7aS,8aR,9aR)-3-(3-cyano-3-(pyridin-2-yl)azetidine-1-carbonyl)-5-oxodecahydro-1H-cyclopropa[d]pyrrolo[1,2-a]azocin-6-yl)carbamoyl)benzo[b]thiophen-5-yl)difluoromethyl)phosphonic acid] | < 100 | 300 to 3000
3 | O=C(N[C@H]1C[C@@H]2C[C@@H]2C[C@H]2CC[C@@H](C(=O)N3CC(C(=O)N4CC(c5ccccn5)C4)C3)N2C1=O)c1cc2cc(C(F)(F)P(=O)(O)O)ccc2s1 [Compound 86, (difluoro(2-(((3S,6S,7aS,8aR,9aR)-5-oxo-3-(3-(3-(pyridin-2-yl)azetidine-1-carbonyl)azetidine-1-carbonyl)decahydro-1H-cyclopropa[d]pyrrolo[1,2-a]azocin-6-yl)carbamoyl)benzo[b]thiophen-5-yl)methyl)phosphonic acid] | < 100 | 3000 to 30000
4 | Cc1ccccc1C1CN(C(=O)[C@@H]2CC[C@@H]3C[C@H]4C[C@H]4C[C@H](NC(=O)c4cc5cc(C(F)(F)P(=O)(O)O)ccc5s4)C(=O)N32)C1 [Compound 85, (difluoro(2-(((3S,6S,7aS,8aR,9aR)-5-oxo-3-(3-(o-tolyl)azetidine-1-carbonyl)decahydro-1H-cyclopropa[d]pyrrolo[1,2-a]azocin-6-yl)carbamoyl)benzo[b]thiophen-5-yl)methyl)phosphonic acid] | < 100 | 300 to 3000
5 | O=C(N[C@H]1C[C@@H]2C[C@@H]2C[C@H]2CC[C@@H](C(=O)N3CC(F)(C(=O)N4CCOCC4)C3)N2C1=O)c1cc2cc(C(F)(F)P(=O)(O)O)ccc2s1 [Compound 95, (difluoro(2-(((3S,6S,7aS,8aR,9aR)-3-(3-fluoro-3-(morpholine-4-carbonyl)azetidine-1-carbonyl)-5-oxodecahydro-1H-cyclopropa[d]pyrrolo[1,2-a]azocin-6-yl)carbamoyl)benzo[b]thiophen-5-yl)methyl)phosphonic acid] | 100 to 1000 | 3000 to 30000
6 | O=C(N[C@H]1C[C@@H]2C[C@@H]2C[C@H]2CC[C@@H](C(=O)N3CC4(CC(=O)c5nccn54)C3)N2C1=O)c1cc2cc(C(F)(F)P(=O)(O)O)ccc2s1 [Compound 90, (difluoro(2-(((3S,6S,7aS,8aR,9aR)-5-oxo-3-(7′-oxo-6′,7′-dihydrospiro[azetidine-3,5′-pyrrolo[1,2-a]imidazole]-1-carbonyl)decahydro-1H-cyclopropa[d]pyrrolo[1,2-a]azocin-6-yl)carbamoyl)benzo[b]thiophen-5-yl)methyl)phosphonic acid] | < 100 | 300 to 3000
7 | O=C(N[C@H]1C[C@H]2[C@@H](C[C@H]3CC[C@@H](C(=O)N4CC(c5cccnc5)C4)N3C1=O)C2(F)F)c1cc2cc(C(F)(F)P(=O)(O)O)ccc2s1 [Compound 31, ((2-(((3S,6S,7aS,8aR,9aR)-8,8-difluoro-5-oxo-3-(3-(pyridin-3-yl)azetidine-1-carbonyl)decahydro-1H-cyclopropa[d]pyrrolo[1,2-a]azocin-6-yl)carbamoyl)benzo[b]thiophen-5-yl)difluoromethyl)phosphonic acid] | < 100 | 3000 to 30000
8 | O=C(N[C@H]1C[C@H]2[C@@H](C[C@H]3CC[C@@H](C(=O)N4CC(C(=O)N5CCOCC5)C4)N3C1=O)C2(F)F)c1cc2cc(C(F)(F)P(=O)(O)O)ccc2s1 [Compound 30, ((2-(((3S,6S,7aS,8aR,9aR)-8,8-difluoro-3-(3-(morpholine-4-carbonyl)azetidine-1-carbonyl)-5-oxodecahydro-1H-cyclopropa[d]pyrrolo[1,2-a]azocin-6-yl)carbamoyl)benzo[b]thiophen-5-yl)difluoromethyl)phosphonic acid] | < 100 | 3000 to 30000

Now from value to compound:

Row | IC50 [1] [nM] | IC50 [2] [nM] | SMILES
9 | < 100 | 300 to 3000 | CC(=O)N1CCC2C1CN2C(=O)[C@@H]1CC[C@@H]2C[C@H]3C[C@H]3C[C@H](NC(=O)c3cc4cc(C(F)(F)P(=O)(O)O)ccc4s3)C(=O)N21 (stereo partly drawn) [Example 270, ((2-(((3S,6S,7aS,8aR,9aR)-3-(2-acetyl-2,6-diazabicyclo[3.2.0]heptane-6-carbonyl)-5-oxodecahydro-1H-cyclopropa[d]pyrrolo[1,2-a]azocin-6-yl)carbamoyl)benzo[b]thiophen-5-yl)difluoromethyl)phosphonic acid]
10 | 100 to 1000 | 300 to 3000 | O=C(N[C@H]1C[C@@H]2C[C@@H]2C[C@H]2CC[C@@H](C(=O)N3CCN(C(=O)c4cc[nH]n4)CC3)N2C1=O)c1cc2cc(C(F)(F)P(=O)(O)O)ccc2s1 [Compound 105, ((2-(((3S,6S,7aS,8aR,9aR)-3-(4-(1H-pyrazole-3-carbonyl)piperazine-1-carbonyl)-5-oxodecahydro-1H-cyclopropa[d]pyrrolo[1,2-a]azocin-6-yl)carbamoyl)benzo[b]thiophen-5-yl)difluoromethyl)phosphonic acid]
11 | < 100 | 3000 to 30000 | O=C(N[C@H]1C[C@@H]2C[C@@H]2C[C@H]2CC[C@@H](C(=O)N3CC(c4nccs4)C3)N2C1=O)c1cc2cc(C(F)(F)P(=O)(O)O)ccc2s1 [Example 286, (difluoro(2-(((3S,6S,7aS,8aR,9aR)-5-oxo-3-(3-(thiazol-2-yl)azetidine-1-carbonyl)decahydro-1H-cyclopropa[d]pyrrolo[1,2-a]azocin-6-yl)carbamoyl)benzo[b]thiophen-5-yl)methyl)phosphonic acid]
12 | < 100 | 3000 to 30000 | Cc1cn(C)c(N2C[C@H](NC(=O)[C@@H]3CC[C@@H]4C[C@H]5C[C@H]5C[C@H](NC(=O)c5cc6cc(C(F)P(=O)(O)O)ccc6s5)C(=O)N43)[C@@H](F)C2)n1 (stereo partly drawn) [Example 348, ((2-(((3S,6S,7aS,8aR,9aR)-3-(((3S,4S)-1-(1,4-dimethyl-1H-imidazol-2-yl)-4-fluoropyrrolidin-3-yl)carbamoyl)-5-oxodecahydro-1H-cyclopropa[d]pyrrolo[1,2-a]azocin-6-yl)carbamoyl)benzo[b]thiophen-5-yl)fluoromethyl)phosphonic acid]
13 | < 100 | > 30000 | Cc1ccncc1C1CN(C(=O)[C@@H]2CC[C@@H]3C[C@@H]4C[C@@H]4C[C@H](NC(=O)c4cc5cc(CP(=O)(O)O)ccc5s4)C(=O)N32)C1 [Example 243, ((2-(((3S,6S,7aR,8aS,9aR)-3-(3-(4-methylpyridin-3-yl)azetidine-1-carbonyl)-5-oxodecahydro-1H-cyclopropa[d]pyrrolo[1,2-a]azocin-6-yl)carbamoyl)benzo[b]thiophen-5-yl)methyl)phosphonic acid]
14 | < 100 | 3000 to 30000 | O=C(N[C@H]1C[C@H]2C[C@H]2C[C@H]2CC[C@@H](C(=O)N3CC(c4cnccc4O)C3)N2C1=O)c1cc2cc(CP(=O)(O)O)ccc2s1 [Example 294, ((2-(((3S,6S,7aR,8aS,9aR)-3-(3-(4-hydroxypyridin-3-yl)azetidine-1-carbonyl)-5-oxodecahydro-1H-cyclopropa[d]pyrrolo[1,2-a]azocin-6-yl)carbamoyl)benzo[b]thiophen-5-yl)methyl)phosphonic acid]
